Data taken from PubChem BioAssay AID1963449 (Molecular Pharmacology Branch, DTP, NCI, 2024).
pIC50: −log10 of the molar value. “And” between values parts separate entries of the source, which are not always exact repeats. Equal entries are not always repeated.

System: 596521-263-R-J1-PDC complex spheroid growth
Test: Anticancer human tumor 596521-263-R-J1-PDC patient-derived soft tissue sarcoma cell line growth inhibition [Asc]
Conditions: for viability, T/C: stronger effect = lower value
Protocol: Multicellular complex tumor spheroid response to apoptosis pathway targeting inhibitors Alrizomadlin, Pelcitoclax, and Dasminapant in combination with a variety of drugs and investigational agents in selected tumor cell lines
The MDM2 inhibitor alrizomadlin, the Bcl-2/Bcl-xL inhibitor pelcitoclax, and the IAPs inhibitor dasminapant were evaluated both individually and in combination with standard of care and investigational anticancer small molecules within a complex spheroid model of solid tumors. . Complex spheroids include a stromal component modeled by human endothelial cells (HUVEC) and fibroblasts modeled by human mesenchymal stem cells (MSCs). The concentration ranges selected for each drug and investigational agent were based upon clinically achievable concentrations if the clinical Cmax of the agent was known.
Compounds. The drugs and investigational agents: alrizomadlin (APG-115; NSC831270), pelcitoclax (APG-1252; NSC835773), dasminapant (APG-1387;NSC834197), TAK-243 (NSC785004), copanlisib (NSC809693), olaparib (NSC753686), talazoparib (NSC767125), cobimetinib (NSC 768068), eltanexor (KPT-8602, NSC 794443), abemaciclib (NSC 768073), sotorasib (NSC818433), adagrasib (NSC 831453), MRTX-1133 (NSC 836407), Iadademestat (ORY1001, NSC 806812), and RMC-4630 (NSC839698), were obtained from the NCI Developmental Therapeutics Program Chemical Repository. The FDA-approved anticancer drug set is available from the Developmental Therapeutics Program at https://dtp.cancer.gov/organization/dscb/obtaining/available plates.htm. […] The stock solutions were prepared in dimethyl sulfoxide (DMSO, Sigma-Aldrich, St. Louis, MO, cat. D2650) at 800-fold the tested concentration and stored at -70 degrees C prior to their use. All drugs and investigational agents were tested over a range starting from a high concentration at or near the clinical Cmax and decreasing in half-log increments. If the clinical Cmax for an agent had not been determined, the highest concentration tested was 10 microM.
The patient-derived cancer (PDC) cell lines include five colon adenocarcinomas: 186277-243-T-J2-PDC, 616215-338-R-J1-PDC, 439559-082-T-J2-PDC, 463943-066-T-J2-PDC, and 519858-162-T-J1-PDC; three pancreatic carcinomas: 323965-272-R-J2-PDC, 521955-158-R6-J3-PDC, and 521955-158-R2-J5-PDC; two uterine sarcomas: 327498-152-R-J2-PDC and 993429-296-R-J1-PDC; two rhabdomyosarcomas: 755483-174-R-J1-PDC and 772245-204-R-J1-PDC; two soft tissue sarcomas: 126254-015-R-J1-PDC and 494315-158-R-J1-PDC; two malignant fibrous histiocytomas: 317291-083-R-J1-PDC and 596521-263-R-J1-PDC; two breast carcinomas: 171881-019-R-J1-PDC and 885512-296-R-J2-PDC; and one ovarian carcinoma: 6556581-035-R-J-PDC were obtained from the NCI PDMR, (https://pdmr.cancer.gov). The established cell lines HSSY-2 synovial sarcoma (RRID:CVCL 8719), SYO-1 synovial sarcoma (RRID:CVCL_7146), MPNST malignant peripheral neural sheath tumor were obtained from the Sloan Kettering Institute. The following established cell lines were purchased from the American Type Culture Collection (ATCC, Manassas, VA), Sor the received from the NCI repository:, PANC-1 pancreatic carcinoma (CRL-1469, RRID:CVCL_0480), OVCAR-5 ovarian carcinoma (RRID:CVCL_1628), OVCAR-8 ovarian carcinoma (RRID:CVCL_1629), , MCF-7 breast carcinoma (CRL-12584, RRID:CVCL_0031), MDA-MB-231 breast carcinoma (CRL-12532, RRID:CVCL_0062), NCI-H1876 small cell lung carcinoma (CRL-5902, RRID:CVCL_1503), NCI-H510A small cell lung carcinoma (HTB-184, RRID:CVCL_1565), NCI-H1417 (CRL-5869, RRID:CVCL_1469), and NCI-H196 small cell lung carcinoma (CRL-5823, RRID:CVCL_1509). Dr. Peter Houghton (Greehey Children's Cancer Research Institute, University of Texas Health Science Center, San Antonio, TX) provided Rh-18 rhabdomyosarcoma (RRID:CVCL_1659). Pooled donor human umbilical vein endothelial cells (HUVEC, Lonza, cat. CC-2519) and human mesenchymal stem cells (hMSC, Lonza, cat. PT-2501) were purchased from Lonza (Walkersville, MD).
Cell Culture. […]

[1] = curve of first compound, second compound 0.0316 µM
[2] = curve of first compound, second compound 0.1 µM
[3] = curve of first compound, second compound 0.316 µM
[4] = curve of first compound, second compound 1 µM
[5] = curve of first compound, second compound 3.16 µM
[6] = curve of first compound, second compound 10 µM
[7] = second compound 0.0316 µM, first compound 0.0316 µM
[8] = second compound 0.0316 µM, first compound 0.1 µM
[9] = second compound 0.0316 µM, first compound 0.316 µM
[10] = second compound 0.0316 µM, first compound 1 µM
[11] = second compound 0.1 µM, first compound 0.0316 µM
[12] = second compound 0.1 µM, first compound 0.1 µM
[13] = second compound 0.1 µM, first compound 0.316 µM
[14] = second compound 0.1 µM, first compound 1 µM
[15] = second compound 0.316 µM, first compound 0.0316 µM
[16] = second compound 0.316 µM, first compound 0.1 µM
[17] = second compound 0.316 µM, first compound 0.316 µM
[18] = second compound 0.316 µM, first compound 1 µM
[19] = second compound 1 µM, first compound 0.0316 µM
[20] = second compound 1 µM, first compound 0.1 µM
[21] = second compound 1 µM, first compound 0.316 µM
[22] = second compound 1 µM, first compound 1 µM
[23] = second compound 3.16 µM, first compound 0.0316 µM
[24] = second compound 3.16 µM, first compound 0.1 µM
[25] = second compound 3.16 µM, first compound 0.316 µM
[26] = second compound 3.16 µM, first compound 1 µM
[27] = second compound 10 µM, first compound 0.0316 µM
[28] = second compound 10 µM, first compound 0.1 µM
[29] = second compound 10 µM, first compound 0.316 µM
[30] = second compound 10 µM, first compound 1 µM
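Also: spheroids exposed to compounds for 7 days.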

`C=CC(=O)N1CCN(c2nc(=O)n(-c3c(C)ccnc3C(C)C)c3nc(-c4c(O)cccc4F)c(F)cc23)C(C)C1` (stereo unspecified) was tested, and the viability, T/C (compound 0.0316 µM) was 93.6% and 91.4%, the viability, T/C (compound 0.1 µM) was 101% and 93.4% and the viability, T/C (compound 0.316 µM) was 97.6% and 109%. The viability, T/C (compound 1 µM) was 108% and 112%, the viability, T/C (compound 3.16 µM) was 96.7% and 107% and the viability, T/C (compound 10 µM) was 78% and 88.9%. The pIC50 (curve of compound) was < 5.00.

`O=C(c1ccc(F)c(F)c1Nc1ccc(I)cc1F)N1CC(O)([C@@H]2CCCCN2)C1` + Cc1c(S(C)(=O)=O)c(-c2cc(F)cc(N3CCN(c4ccc(NS(=O)(=O)c5ccc(NC(CCN6CCC(C(=O)OCCCP(=O)(O)O)CC6)CSc6ccccc6)c(S(=O)(=O)C(F)(F)F)c5)cc4)CC3)c2)c(-c2ccc(Cl)cc2)n1C(C)C was tested, and the pIC50 [1] was 6.46, the pIC50 [2] was 6.63 and the pIC50 [3] was 6.68. For the same compound, the pIC50 [4] was 6.76, the pIC50 [5] was 6.91 and the pIC50 [6] was 7.26. For the same compound, the viability, T/C (second compound 0.0316 µM, first compound 0.00316 µM) was 96%, the viability, T/C (second compound 0.0316 µM, first compound 0.01 µM) was 93% and the viability, T/C [7] was 93.3%. It also gave a viability, T/C [8] of 74.9%, a viability, T/C [9] of 52.7% and a viability, T/C [10] of 30.2%. The viability, T/C (second compound 0.1 µM, first compound 0.00316 µM) was 101%, the viability, T/C (second compound 0.1 µM, first compound 0.01 µM) was 102% and the viability, T/C [11] was 103%. It also gave a viability, T/C [12] of 70.2%, a viability, T/C [13] of 45.5% and a viability, T/C [14] of 29.9%. For the same compound, the viability, T/C (second compound 0.316 µM, first compound 0.00316 µM) was 87.1%, the viability, T/C (second compound 0.316 µM, first compound 0.01 µM) was 84% and the viability, T/C [15] was 87.1%. It also gave a viability, T/C [16] of 71.1%, a viability, T/C [17] of 38.1% and a viability, T/C [18] of 22.9%. For the same compound, the viability, T/C (second compound 1 µM, first compound 0.00316 µM) was 83.3%, the viability, T/C (second compound 1 µM, first compound 0.01 µM) was 70.9% and the viability, T/C [19] was 84.8%. For the same compound, the viability, T/C [20] was 66.3%, the viability, T/C [21] was 31.4% and the viability, T/C [22] was 21.8%. It also gave a viability, T/C (second compound 3.16 µM, first compound 0.00316 µM) of 62.8%, a viability, T/C (second compound 3.16 µM, first compound 0.01 µM) of 71.4% and a viability, T/C [23] of 62.2%. It also gave a viability, T/C [24] of 55.8%, a viability, T/C [25] of 26.7% and a viability, T/C [26] of 16.8%. The viability, T/C (second compound 10 µM, first compound 0.00316 µM) was 54.1%, the viability, T/C (second compound 10 µM, first compound 0.01 µM) was 57.4% and the viability, T/C [27] was 55%. For the same compound, the viability, T/C [28] was 45%, the viability, T/C [29] was 26.8% and the viability, T/C [30] was 18.6%.

`O=C(c1cc(Cc2n[nH]c(=O)c3ccccc23)ccc1F)N1CCN(C(=O)C2CC2)CC1` + Cc1c(S(C)(=O)=O)c(-c2cc(F)cc(N3CCN(c4ccc(NS(=O)(=O)c5ccc(NC(CCN6CCC(C(=O)OCCCP(=O)(O)O)CC6)CSc6ccccc6)c(S(=O)(=O)C(F)(F)F)c5)cc4)CC3)c2)c(-c2ccc(Cl)cc2)n1C(C)C was tested, and the pIC50 [1] was < 5.00, the pIC50 [2] was < 5.00 and the pIC50 [3] was 5.08. The pIC50 [4] was 5.27, the pIC50 [5] was 5.86 and the pIC50 [6] was > 7.50. It also gave a viability, T/C [7] of 100%, a viability, T/C [8] of 95.7% and a viability, T/C [9] of 88.8%. The viability, T/C [10] was 89.3%, the viability, T/C (second compound 0.0316 µM, first compound 3.16 µM) was 85.7% and the viability, T/C (second compound 0.0316 µM, first compound 10 µM) was 59.4%. The viability, T/C [11] was 96.3%, the viability, T/C [12] was 102% and the viability, T/C [13] was 86.4%. The viability, T/C [14] was 98.2%, the viability, T/C (second compound 0.1 µM, first compound 3.16 µM) was 76.2% and the viability, T/C (second compound 0.1 µM, first compound 10 µM) was 54%. The viability, T/C [15] was 94%, the viability, T/C [16] was 92.8% and the viability, T/C [17] was 79.5%. It also gave a viability, T/C [18] of 85.9%, a viability, T/C (second compound 0.316 µM, first compound 3.16 µM) of 61.2% and a viability, T/C (second compound 0.316 µM, first compound 10 µM) of 47.5%. For the same compound, the viability, T/C [19] was 78.8%, the viability, T/C [20] was 80.1% and the viability, T/C [21] was 68.3%. The viability, T/C [22] was 71.2%, the viability, T/C (second compound 1 µM, first compound 3.16 µM) was 61% and the viability, T/C (second compound 1 µM, first compound 10 µM) was 37.7%. It also gave a viability, T/C [23] of 61%, a viability, T/C [24] of 63.8% and a viability, T/C [25] of 55.8%. For the same compound, the viability, T/C [26] was 56.5%, the viability, T/C (second compound 3.16 µM, first compound 3.16 µM) was 35.2% and the viability, T/C (second compound 3.16 µM, first compound 10 µM) was 22.1%. The viability, T/C [27] was 52.7%, the viability, T/C [28] was 46.4% and the viability, T/C [29] was 44.8%. It also gave a viability, T/C [30] of 43.4%, a viability, T/C (second compound 10 µM, first compound 3.16 µM) of 36.3% and a viability, T/C (second compound 10 µM, first compound 10 µM) of 16.5%.
